Experiments:
[1] = human, cited from earlier work
[2] = human, in vivo
Text: In some embodiments, intravenous fluorescein can be used as the fluorescent agent.

Q: Which results are given for `O=C1OC2(c3ccc(O)cc3Oc3cc(O)ccc32)c2ccccc21` [fluorescein]?
A: fraction of dose metabolized ([1]; 14 mg/kg dose, IV, within 1 hour of administration): 80%; time the urine remains slightly fluorescent post dose ([1]; post dose): 24 to 36 h; volume of distribution [1]: 0.5 L/kg; concentration of fluorescein in urine [2]: about 0.1 mg/ml; concentration of fluorescein in urine relative to concentration in the blood [2]: about 5 ×; rate of drug excreted into the ureters [2]: 0.05 mg/min

— US7996068B2, “Surgical method and apparatus for identification of fluorescence” (The Board of Trustees of the Leland Stanford Junior …, priority 2007, dated 2011)
